Experimental data published in ChEMBL document CHEMBL1201862, “PubChem BioAssay data set” (2004).
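Cells were grown in 96-well plates and exposed to each compound for 48 hours at five concentrations; endpoints were interpolated linearly between bracketing concentrations, or set to the highest concentration if not reached. Here, GI50 denotes the concentration required for 50% inhibition of growth.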 The source made the active and inactive calls. Rule as the data show it: active = GI50 up to about 1.1 µM and inactive = higher.

Tests used:
Assay in all cases: growth of human tumour cells (NCI), 48 h
CCRF-CEM = system: CCRF-CEM
HCC 2998 = system: HCC 2998
K562 = system: K562
LOX IMVI = system: LOX IMVI
MOLT-4 = system: MOLT-4
Malme-3M = system: Malme-3M
NCI-H23 = system: NCI-H23
SF-295 = system: SF-295
SF-539 = system: SF-539
SK-MEL-5 = system: SK-MEL-5
SK-OV-3 = system: SK-OV-3
SNB-75 = system: SNB-75
SR = system: SR
TK-10 = system: TK-10
UACC-62 = system: UACC-62
CAKI-1 = system: CAKI-1
HOP-62 = system: HOP-62
SK-MEL-2 = system: SK-MEL-2

Measured: GI50

CC1CC2C(=O)N(c3ccccc3)C(=O)C2c2[nH]c3ccccc3c21 (stereo not drawn)
inactive: CCRF-CEM 35.6 µM | HCC 2998 > 100 µM | K562 33 µM | LOX IMVI 45.5 µM | MOLT-4 28.4 µM | Malme-3M 46.1 µM | NCI-H23 58.9 µM | SF-295 44.8 µM | SF-539 38.8 µM | SK-MEL-5 > 100 µM | SK-OV-3 14.2 µM | SNB-75 28.9 µM | SR 29.2 µM | TK-10 85.7 µM | UACC-62 > 100 µM

O=C(NCCCCCCCCNC(=O)c1cnc2ccccc2n1)c1cnc2ccccc2n1
inactive: CAKI-1 > 100 µM | CCRF-CEM > 100 µM | HOP-62 > 100 µM | K562 > 100 µM | LOX IMVI > 100 µM | MOLT-4 > 100 µM | Malme-3M > 100 µM | NCI-H23 > 100 µM | SF-295 > 100 µM | SF-539 > 100 µM | SK-MEL-2 > 100 µM | SK-MEL-5 > 100 µM | SK-OV-3 > 100 µM | SNB-75 49.9 µM | SR > 100 µM | TK-10 > 100 µM | UACC-62 > 100 µM

Cc1ccc(C)c(NC(=O)CC/C(=N\NC(=O)C(N)=O)C(C)C(=O)c2ccc(O)cc2)c1 (stereo not drawn)
inactive: CAKI-1 > 100 µM | CCRF-CEM > 100 µM | HCC 2998 > 100 µM | HOP-62 > 100 µM | K562 > 100 µM | LOX IMVI > 100 µM | MOLT-4 > 100 µM | Malme-3M > 100 µM | NCI-H23 > 100 µM | SF-295 > 100 µM | SF-539 > 100 µM | SK-MEL-2 > 100 µM | SK-MEL-5 > 100 µM | SK-OV-3 > 100 µM | SR > 100 µM | UACC-62 > 100 µM

Cn1nc(-c2ccccc2)c(N=[N+]=[N-])cc1=O
inactive: CAKI-1 > 100 µM | CCRF-CEM > 100 µM | HCC 2998 > 100 µM | HOP-62 > 100 µM | K562 > 100 µM | LOX IMVI > 100 µM | MOLT-4 > 100 µM | Malme-3M > 100 µM | NCI-H23 > 100 µM | SF-295 > 100 µM | SF-539 > 100 µM | SK-MEL-5 > 100 µM | SK-OV-3 1.59 µM | SR > 100 µM | TK-10 > 100 µM | UACC-62 > 100 µM

Cc1ccc(S(=O)(=O)N2CCC3(C(/C=C/c4ccccc4)=Nc4ccccc43)C2c2ccccc2)cc1 (stereo not drawn)
inactive: CAKI-1 > 100 µM | CCRF-CEM > 100 µM | HCC 2998 > 100 µM | HOP-62 63.5 µM | K562 21.3 µM | LOX IMVI > 100 µM | Malme-3M > 100 µM | NCI-H23 > 100 µM | SF-295 > 100 µM | SF-539 > 100 µM | SK-MEL-5 > 100 µM | SK-OV-3 > 100 µM | SNB-75 87.3 µM | SR > 100 µM | TK-10 > 100 µM | UACC-62 > 100 µM

N#C/C(=C1\OC(=N)C(c2ccc(Cl)cc2)=C1O)c1ccc(Cl)cc1
inactive: CAKI-1 17.3 µM | CCRF-CEM 12.8 µM | HCC 2998 17.1 µM | HOP-62 19.1 µM | K562 23.5 µM | LOX IMVI 16 µM | MOLT-4 17.3 µM | Malme-3M 19.1 µM | NCI-H23 13.6 µM | SF-295 15.8 µM | SF-539 14.5 µM | SK-OV-3 37.8 µM | SNB-75 17.5 µM | SR 18.7 µM | TK-10 26.4 µM | UACC-62 14.2 µM

C=CC(=O)NCCSCCCOC1(C(=O)O)CC(O)C(NC(C)=O)C(C(O)C(O)CO)O1 (stereo not drawn)
inactive: HCC 2998 > 100 µM | K562 > 100 µM | LOX IMVI > 100 µM | MOLT-4 > 100 µM | Malme-3M > 100 µM | NCI-H23 > 100 µM | SF-295 > 100 µM | SF-539 > 100 µM | SK-MEL-2 > 100 µM | SK-OV-3 > 100 µM | SR > 100 µM | TK-10 > 100 µM | UACC-62 > 100 µM

CC(=O)OC[C@]1(O)CC[C@@]23CC1C[C@@H]2CCC1C(C)(C)CCC[C@@]13C (stereo partly drawn)
inactive: CAKI-1 18.2 µM | CCRF-CEM 10.1 µM | HCC 2998 17.4 µM | HOP-62 17.4 µM | K562 4.76 µM | LOX IMVI 11.1 µM | MOLT-4 1.77 µM | Malme-3M 15.6 µM | NCI-H23 12.8 µM | SF-295 17.6 µM | SF-539 16.4 µM | SK-MEL-5 15 µM | SK-OV-3 15.2 µM | SNB-75 16.1 µM | SR 8.89 µM | TK-10 13.4 µM | UACC-62 13.4 µM

COC(=O)C1[C@@H](C(=O)OC)C(=O)O[C@H]1c1cc(OC)c(OC)c(OC)c1 (stereo partly drawn)
inactive: CAKI-1 > 100 µM | CCRF-CEM > 100 µM | HCC 2998 > 100 µM | HOP-62 > 100 µM | K562 > 100 µM | LOX IMVI > 100 µM | MOLT-4 > 100 µM | Malme-3M > 100 µM | NCI-H23 > 100 µM | SF-295 > 100 µM | SF-539 > 100 µM | SK-MEL-5 > 100 µM | SK-OV-3 > 100 µM | SNB-75 > 100 µM | SR > 100 µM | TK-10 > 100 µM | UACC-62 > 100 µM
